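Five compound concentrations were applied to cells in 96-well plates for 48 hours; endpoints were derived by simple linear interpolation of the resulting dose-response curve. Abbreviation: GI50, concentration required for 50% inhibition of growth.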 Activity calls are given as the source filed them. Rule as the data show it: active = GI50 up to about 1.1 µM and inactive = higher.
Columns and labels:
Test in all cases: growth of human tumour cells (NCI), 48 h
KM12 = tested on: KM12
IGROV-1 = tested on: IGROV-1
LOX IMVI = tested on: LOX IMVI
SF-295 = tested on: SF-295
NCI-H522 = tested on: NCI-H522
UO-31 = tested on: UO-31
SK-MEL-5 = tested on: SK-MEL-5
OVCAR-4 = tested on: OVCAR-4
COLO 205 = tested on: COLO 205
NCI-H460 = tested on: NCI-H460
M14 = tested on: M14
SF-268 = tested on: SF-268
OVCAR-3 = tested on: OVCAR-3
NCI-H23 = tested on: NCI-H23
NCI/ADR-RES = tested on: NCI/ADR-RES
TK-10 = tested on: TK-10
HCT-15 = tested on: HCT-15
RXF 393 = tested on: RXF 393
HL-60 = tested on: HL-60
786-0 = tested on: 786-0
DU-145 = tested on: DU-145
A549 = tested on: A549
MDA-MB-231 = tested on: MDA-MB-231
UACC-62 = tested on: UACC-62
MOLT-4 = tested on: MOLT-4
Hs-578T = tested on: Hs-578T
CAKI-1 = tested on: CAKI-1
SR = tested on: SR
Malme-3M = tested on: Malme-3M
SK-MEL-2 = tested on: SK-MEL-2
PC-3 = tested on: PC-3
SNB-19 = tested on: SNB-19
MDA-N = tested on: MDA-N
BT-549 = tested on: BT-549
U-251 = tested on: U-251
SN12C = tested on: SN12C
HT-29 = tested on: HT-29
RPMI-8226 = tested on: RPMI-8226
OVCAR-5 = tested on: OVCAR-5
ACHN = tested on: ACHN
A498 = tested on: A498
MCF7 = tested on: MCF7
UACC-257 = tested on: UACC-257
SF-539 = tested on: SF-539
SK-MEL-28 = tested on: SK-MEL-28
HOP-62 = tested on: HOP-62
HCT-116 = tested on: HCT-116
NCI-H226 = tested on: NCI-H226
EKVX = tested on: EKVX
SW-620 = tested on: SW-620
MDA-MB-435 = tested on: MDA-MB-435
HCC 2998 = tested on: HCC 2998
HOP-92 = tested on: HOP-92
OVCAR-8 = tested on: OVCAR-8
K562 = tested on: K562
SNB-75 = tested on: SNB-75

For CC(C)N1[C@@H]2CCCC[C@H]2N(C(C)C)P1(=O)C(=O)/C=C/c1ccccc1, the GI50 (KM12) was 3.23 µM (inactive), the GI50 (IGROV-1) was 1.98 µM (inactive) and the GI50 (LOX IMVI) was 2.03 µM (inactive). The GI50 (SF-295) was 10.6 µM (inactive), the GI50 (NCI-H522) was 1.53 µM (inactive) and the GI50 (UO-31) was 1.64 µM (inactive). For the same compound, the GI50 (SK-MEL-5) was 1.5 µM (inactive), the GI50 (OVCAR-4) was 1.67 µM (inactive) and the GI50 (COLO 205) was 1.91 µM (inactive). The GI50 (NCI-H460) was 2.97 µM (inactive), the GI50 (M14) was 2.02 µM (inactive) and the GI50 (SF-268) was 2.44 µM (inactive). For the same compound, the GI50 (OVCAR-3) was 2.38 µM (inactive), the GI50 (NCI-H23) was 2.16 µM (inactive) and the GI50 (NCI/ADR-RES) was 2.02 µM (inactive). For the same compound, the GI50 (TK-10) was 3.51 µM (inactive), the GI50 (HCT-15) was 1.92 µM and the GI50 (RXF 393) was 1.69 µM (inactive). For the same compound, the GI50 (HL-60) was 1.65 µM (inactive), the GI50 (786-0) was 1.81 µM (inactive) and the GI50 (DU-145) was 2.08 µM (inactive). For the same compound, the GI50 (A549) was 3.35 µM (inactive), the GI50 (MDA-MB-231) was 2.98 µM (inactive) and the GI50 (UACC-62) was 2.57 µM (inactive). The GI50 (MOLT-4) was 2.7 µM (inactive), the GI50 (Hs-578T) was 1.71 µM (inactive) and the GI50 (CAKI-1) was 2.54 µM (inactive). The GI50 (SR) was 2.83 µM (inactive), the GI50 (Malme-3M) was 1 µM (active) and the GI50 (SK-MEL-2) was 2.72 µM (inactive). For the same compound, the GI50 (PC-3) was 4.18 µM (inactive), the GI50 (SNB-19) was 5.52 µM (inactive) and the GI50 (MDA-N) was 1.83 µM (inactive). For the same compound, the GI50 (BT-549) was 2.91 µM (inactive), the GI50 (U-251) was 4.08 µM (inactive) and the GI50 (SN12C) was 1.99 µM (inactive). For the same compound, the GI50 (HT-29) was 2.79 µM (inactive), the GI50 (RPMI-8226) was 2.49 µM (inactive) and the GI50 (OVCAR-5) was 2.37 µM (inactive). The GI50 (ACHN) was 2.69 µM (inactive), the GI50 (A498) was 2.75 µM (inactive) and the GI50 (MCF7) was 3.5 µM (inactive). For the same compound, the GI50 (UACC-257) was 3.08 µM (inactive), the GI50 (SF-539) was 1.82 µM (inactive) and the GI50 (SK-MEL-28) was 2.37 µM (inactive). For the same compound, the GI50 (HOP-62) was 3.88 µM (inactive), the GI50 (HCT-116) was 1.96 µM (inactive) and the GI50 (NCI-H226) was 3.52 µM (inactive). The GI50 (EKVX) was 3.54 µM (inactive), the GI50 (SW-620) was 2.58 µM (inactive) and the GI50 (MDA-MB-435) was 1.76 µM (inactive). The GI50 (HCC 2998) was 2.18 µM (inactive), the GI50 (HOP-92) was 1.76 µM (inactive) and the GI50 (OVCAR-8) was 1.73 µM (inactive). The GI50 (K562) was 2.52 µM (inactive).
In the case of NC1=NC(=O)[C@H](CSCc2ccccc2)N1C(=O)OCc1ccccc1, the GI50 (KM12) is reported as > 100 µM (inactive), the GI50 (IGROV-1) is reported as > 100 µM (inactive) and the GI50 (LOX IMVI) is reported as > 100 µM (inactive). The GI50 (SF-295) was > 100 µM (inactive), the GI50 (NCI-H522) was > 100 µM (inactive) and the GI50 (UO-31) was > 100 µM (inactive). For the same compound, the GI50 (SK-MEL-5) was > 100 µM (inactive), the GI50 (OVCAR-4) was > 100 µM (inactive) and the GI50 (COLO 205) was > 100 µM (inactive). For the same compound, the GI50 (NCI-H460) was > 100 µM (inactive), the GI50 (SF-268) was > 100 µM (inactive) and the GI50 (OVCAR-3) was > 100 µM (inactive). The GI50 (NCI-H23) was > 100 µM (inactive), the GI50 (NCI/ADR-RES) was > 100 µM (inactive) and the GI50 (TK-10) was > 100 µM (inactive). For the same compound, the GI50 (HCT-15) was greater than 100 µM, the GI50 (RXF 393) was > 100 µM (inactive) and the GI50 (HL-60) was > 100 µM (inactive). For the same compound, the GI50 (786-0) was > 100 µM (inactive), the GI50 (DU-145) was > 100 µM (inactive) and the GI50 (MDA-MB-231) was > 100 µM (inactive). The GI50 (UACC-62) was > 100 µM (inactive), the GI50 (MOLT-4) was > 100 µM (inactive) and the GI50 (Hs-578T) was > 100 µM (inactive). The GI50 (CAKI-1) was > 100 µM (inactive), the GI50 (SR) was > 100 µM (inactive) and the GI50 (Malme-3M) was > 100 µM (inactive). For the same compound, the GI50 (SK-MEL-2) was > 100 µM (inactive), the GI50 (PC-3) was > 100 µM (inactive) and the GI50 (SNB-19) was > 100 µM (inactive). For the same compound, the GI50 (MDA-N) was > 100 µM (inactive), the GI50 (BT-549) was > 100 µM (inactive) and the GI50 (U-251) was > 100 µM (inactive). For the same compound, the GI50 (SN12C) was > 100 µM (inactive), the GI50 (HT-29) was > 100 µM (inactive) and the GI50 (OVCAR-5) was > 100 µM (inactive). The GI50 (ACHN) was > 100 µM (inactive), the GI50 (A498) was > 100 µM (inactive) and the GI50 (MCF7) was > 100 µM (inactive). The GI50 (UACC-257) was > 100 µM (inactive), the GI50 (HOP-62) was > 100 µM (inactive) and the GI50 (HCT-116) was > 100 µM (inactive). For the same compound, the GI50 (NCI-H226) was > 100 µM (inactive), the GI50 (EKVX) was > 100 µM (inactive) and the GI50 (SW-620) was > 100 µM (inactive). The GI50 (SNB-75) was > 100 µM (inactive), the GI50 (MDA-MB-435) was > 100 µM (inactive) and the GI50 (HCC 2998) was > 100 µM (inactive). The GI50 (OVCAR-8) was > 100 µM (inactive) and the GI50 (K562) was > 100 µM (inactive).

From ChEMBL document CHEMBL1201862, “PubChem BioAssay data set” (2004)
